Data reported in paper PMC7917936, “Synthesis and Self-Assembly Properties of Bola-Amphiphilic Glycosylated Lipopeptide-Type Supramolecular Hydrogels Showing Colour Changes Along with Gel–Sol Transition” (International Journal of Molecular Sciences, 2021).

Assay: Measurement of the gel–sol transition temperature (Tgel), vial inversion method
Format: physicochemical
Details: hydrogel at CGC (0.19 wt%), 200 mM HEPES–NaOH buffer (pH 8.0), oil bath 25 to 85 °C, 1 °C/step, 1 min per step
Protocol: The gel–sol phase transition behaviour of the βGal–AAC–C6–F3 hydrogel (0.19 wt% (CGC) in 200 mM HEPES–NaOH buffer (pH 8.0)) was determined using the vial inversion method. The inverted gel in the vial was placed in an oil bath, which was heated from 25 °C to 85 °C, at a rate of 1 °C/step. The vial was immersed at each temperature for 1 min to equilibrate. The temperature, at which the sample completely dissolved, was defined as the Tgel value of the gel.

Tgel (gel-to-sol phase transition temperature): 78 °C
Structure (SMILES): O=C(CCCCCCN1C(=O)C(Cl)=C(Nc2ccc(O[C@@H]3O[C@H](CO)[C@H](O)[C@H](O)[C@H]3O)cc2)C1=O)N[C@@H](Cc1ccccc1)C(=O)N[C@@H](Cc1ccccc1)C(=O)N[C@@H](Cc1ccccc1)C(=O)O [βGal–AAC–C6–F3]
